Read-outs that look alike come from different tables or passages of the source.
Columns and labels:
Boophilus microplus = Boophilus microplus test (BOOPMI injection); type: in vivo; conditions: Rhipicephalus microplus, read-out: effect in % (no fertile eggs laid)
Procedure: (§1) Solvent: dimethyl sulphoxide
The solution of active compound is injected into the abdomen (Boophilus microplus), and the animals are transferred into dishes and kept in a climatised room. The activity is assessed by […] of fertile eggs.
100% means that none of the ticks has laid any fertile eggs.

[1] = log P determination by HPLC (EEC Directive 79/831 Annex V.A8); type: physicochemical
Procedure: The measurements were carried out using an Agilent 1100 LC system with a 50*4.6 Zorbax Eclipse C18 1.8 μm column (oven temperature 55° C., flow rate 2.0 ml/min).
The following mobile phases were used:
Mobile phase A: acetonitrile+1000 μl of formic acid/l
Mobile phase B: Millipore water+900 μl of formic acid/l

[2] = tested on: larvae of the mustard beetle (Phaedon cochleariae); experiment: Phaedon test (PHAECO spray treatment); conditions: Phaedon cochleariae, in Brassica rapa, foliar, read-out: effect in % (beetle larvae killed)
[3] = tested on: green peach aphid (Myzus persicae); experiment: Myzus test (MYZUPE spray treatment); type: in vivo; conditions: Myzus persicae, foliar, read-out: effect in % (aphids killed)
Excerpt: Solvent: 78 parts by weight of acetone
(§2) Solvent: 78.0 parts by weight of acetone

[4] = tested on: caterpillars of the armyworm (Spodoptera frugiperda); experiment: Spodoptera frugiperda test (SPODFR spray treatment); type: in vivo; conditions: Spodoptera frugiperda, foliar, read-out: effect in % (caterpillars killed)
Excerpt: as §2

Lucilia cuprina larvae = experiment: Lucilia cuprina test (LUCICU); type: in vivo; conditions: read-out: kill in % (larvae killed)
Procedure: as §1
Vessels containing horse meat treated with the active compound preparation of the desired concentration are populated with Lucilia cuprina larvae.
(§3) After the desired period of time, the kill in % is determined.

adult Musca domestica = experiment: Musca domestica test (MUSCDO); type: in vivo; conditions: treated sponge, read-out: kill in % (flies killed)
Procedure: as §1
Vessels containing a sponge treated with the active compound preparation of the desired concentration are populated with adult Musca domestica.
as §3

[5] = 20 μg/animal, injection into the abdomen
[6] = reversed-phase HPLC, Zorbax Eclipse C18 column, by HPLC according to EEC Directive 79/831 Annex V.A8, read-out: log P
[7] = application rate 100 g/ha, maize leaf discs
[8] = application rate 100 g/ha, Chinese cabbage leaf discs
[9] = reversed-phase HPLC, Zorbax Eclipse C18 column, determined by HPLC according to EEC Directive 79/831 Annex V.A8, read-out: log P

Row | Structure (SMILES) | chromatographic logP ([1]; log P) | pest or weed control at 100 g/ha [2] | pest or weed control at 100 g/ha ([3]; in Brassica rapa) | pest or weed control at 100 g/ha ([4]; in Zea mays) | pest or weed control at 100 ppm (adult Musca domestica) | also measured
1 | CNC(=O)c1cc(Cl)cc(Cl)c1NC(=O)c1cc(Cn2nnc(C(F)(F)C(F)(F)F)n2)nn1-c1ncccc1Cl [Example 222] | 3.34 | ≥ 80% | ≥ 80% | ≥ 80% | – | pest or weed control at 0.02 mg (Boophilus microplus; [5]): ≥ 80%; pest or weed control at 100 ppm (Lucilia cuprina larvae; in Equus caballus): ≥ 80%
2 | Cc1cc(Cl)cc(C(=O)NCC#N)c1NC(=O)c1cc(Cn2nnc(C(F)(F)C(F)(F)F)n2)nn1-c1ncccc1Cl [Example 133] | 3.32 | ≥ 80% | – | ≥ 80% | ≥ 80% | –
3 | O=C(NC1CC1)c1cc(Cl)cc(Cl)c1NC(=O)c1cc(Cn2nnc(C(F)(F)C(F)(F)F)n2)nn1-c1ncccc1Cl [Example 151] | 3.57 | ≥ 80% | – | ≥ 80% | ≥ 80% | –
4 | Cc1cc(Br)cc(C(=O)NC2CC2)c1NC(=O)c1cc(Cn2nnc(C(F)(F)F)n2)nn1-c1ncccc1C(F)(F)F [Example 229] | – | ≥ 80% | – | – | – | pest or weed control at 0.02 mg (Boophilus microplus; [5]): ≥ 80%; chromatographic logP [1, 6]: 3.52; pest or weed control at 100 g/ha [4, 7]: ≥ 80%; pest or weed control at 100 ppm (Lucilia cuprina larvae; 100 ppm, treated horse meat): ≥ 80%
5 | CNC(=O)c1cc(C)cc(C)c1NC(=O)c1cc(Cn2nnnc2C(F)(F)F)nn1-c1ncccc1Cl [Example 178] | 2.48 | ≥ 80% | ≥ 80% | ≥ 80% | ≥ 80% | –
6 | Cc1cc(C#N)cc(C(N)=O)c1NC(=O)c1cc(Cn2nnc(C(F)(F)C(F)(F)F)n2)nn1-c1ncccc1Cl [Example 137] | 2.83 | ≥ 80% | – | ≥ 80% | ≥ 80% | –
7 | Cc1cc(C#N)cc(C(=O)NC(C)(C)C)c1NC(=O)c1cc(Cn2nnc(C(F)(F)C(F)(F)F)n2)nn1-c1ncccc1Cl [Example 136] | 3.86 | ≥ 80% | ≥ 80% | ≥ 80% | ≥ 80% | –
8 | Cc1cc(Cl)cc(C(=O)NC(C)C)c1NC(=O)c1cc(Cn2nnnc2C(F)(F)F)nn1-c1ncccc1Cl [Example 162] | 3.12 | ≥ 80% | ≥ 80% | ≥ 80% | ≥ 80% | –
9 | Cc1cc(C#N)cc(C(=O)NC(C)C)c1NC(=O)c1cc(Cn2nnc(C(F)(F)C(F)(F)C(F)(F)F)n2)nn1-c1ncccc1Cl [Example 6] | – | ≥ 80% | – | ≥ 80% | – | pest or weed control at 0.02 mg (Boophilus microplus): ≥ 80%; chromatographic logP ([1]; by HPLC according to EEC Directive 79/831 Annex V.A8, read-out: log P): 3.82; pest or weed control at 100 ppm (Lucilia cuprina larvae; in Equus caballus): ≥ 80%
10 | Cc1cc(Br)cc(C(=O)NC(C)C2CC2)c1NC(=O)c1cc(Cn2nnc(C(F)(F)C(F)(F)F)n2)nn1-c1ncccc1Cl (stereo not drawn) [Example 144] | 4.29 | ≥ 80% | – | ≥ 80% | ≥ 80% | –
11 | Cc1cc(I)cc(C(N)=O)c1NC(=O)c1cc(Cn2nnc(C(F)(F)F)n2)nn1-c1ncccc1Br [Example 351] | – | ≥ 80% | – | – | – | chromatographic logP [1, 6]: 2.95; pest or weed control at 100 g/ha [3, 8]: ≥ 80%; pest or weed control at 100 g/ha [4, 7]: ≥ 80%
12 | Cc1cc(C#N)cc(C(=O)N[C@@H]2C[C@H]2CO)c1NC(=O)c1cc(Cn2nnc(C(F)(F)F)n2)nn1-c1ncccc1Cl [Example 76] | 2.39 | ≥ 80% | ≥ 80% | ≥ 80% | – | –
13 | COCCNC(=O)c1cc(C#N)cc(C)c1NC(=O)c1cc(Cn2nnc(C(F)(F)F)n2)nn1-c1ccccc1Cl [Example 435] | – | ≥ 80% | – | – | – | chromatographic logP [1, 9]: 3.18; pest or weed control at 100 g/ha [3, 8]: ≥ 80%; pest or weed control at 100 g/ha [4, 7]: ≥ 80%
14 | CNC(=O)c1cc(C#N)cc(C)c1NC(=O)c1cc(Cn2nnc(C(F)(F)C(F)(F)F)n2)nn1-c1ccccc1Cl [Example 430] | – | ≥ 80% | – | – | – | chromatographic logP [1, 9]: 3.43; pest or weed control at 100 g/ha [3, 8]: ≥ 80%; pest or weed control at 100 g/ha [4, 7]: ≥ 80%

From patent US8324390B2, “Tetrazole-substituted anthranilamides as pesticides” (Bayer CropScience AG, priority 2008, dated 2012)
